Laboratory results taken from ChEMBL document CHEMBL4507274 (2021).

Tests used:
[1] = biological target: Tyrosine-protein kinase ABL1 (Homo sapiens) (UniProt P00519); conditions: Compound concentration 100.0 nM
[2] = biological target: RAC-alpha serine/threonine-protein kinase (Homo sapiens) (UniProt P31749); conditions: Compound concentration 100.0 nM
[3] = biological target: Calcium/calmodulin-dependent protein kinase type II subunit delta (Homo sapiens) (UniProt Q13557); conditions: Compound concentration 100.0 nM
[4] = biological target: Cyclin-dependent kinase 7 (Homo sapiens) (UniProt P50613); conditions: Compound concentration 100.0 nM
[5] = biological target: Megakaryocyte-associated tyrosine-protein kinase (Homo sapiens) (UniProt P42679); conditions: Compound concentration 100.0 nM
[6] = biological target: Mitogen-activated protein kinase kinase kinase 12 (Homo sapiens) (UniProt Q12852); conditions: Compound concentration 100.0 nM
[7] = biological target: Ephrin type-A receptor 7 (Homo sapiens) (UniProt Q15375); conditions: Compound concentration 100.0 nM
[8] = biological target: Glycogen synthase kinase-3 alpha (Homo sapiens) (UniProt P49840); conditions: Compound concentration 100.0 nM
[9] = system: Mast/stem cell growth factor receptor Kit (Homo sapiens), P10721 [V559D]; conditions: Compound concentration 100.0 nM
[10] = system: Mast/stem cell growth factor receptor Kit (Homo sapiens), P10721 [V559D,V654A]; conditions: Compound concentration 100.0 nM
[11] = biological target: LIM domain kinase 1 (Homo sapiens) (UniProt P53667); conditions: Compound concentration 100.0 nM
[12] = biological target: Mitogen-activated protein kinase kinase kinase kinase 4 (Homo sapiens) (UniProt O95819); conditions: Compound concentration 100.0 nM
[13] = biological target: Tyrosine-protein kinase Mer (Homo sapiens) (UniProt Q12866); conditions: Compound concentration 100.0 nM
[14] = biological target: Hepatocyte growth factor receptor (Homo sapiens) (UniProt P08581); conditions: Compound concentration 100.0 nM
[15] = biological target: Serine/threonine-protein kinase 26 (Homo sapiens) (UniProt Q9P289); conditions: Compound concentration 100.0 nM
[16] = biological target: Myosin light chain kinase 2, skeletal/cardiac muscle (Homo sapiens) (UniProt Q9H1R3); conditions: Compound concentration 100.0 nM
[17] = biological target: Myosin-IIIb (Homo sapiens) (UniProt Q8WXR4); conditions: Compound concentration 100.0 nM
[18] = biological target: T1, Mitogen-activated protein kinase 13 (Homo sapiens) (UniProt O15264); conditions: Compound concentration 100.0 nM
T1 sequence (whole entry): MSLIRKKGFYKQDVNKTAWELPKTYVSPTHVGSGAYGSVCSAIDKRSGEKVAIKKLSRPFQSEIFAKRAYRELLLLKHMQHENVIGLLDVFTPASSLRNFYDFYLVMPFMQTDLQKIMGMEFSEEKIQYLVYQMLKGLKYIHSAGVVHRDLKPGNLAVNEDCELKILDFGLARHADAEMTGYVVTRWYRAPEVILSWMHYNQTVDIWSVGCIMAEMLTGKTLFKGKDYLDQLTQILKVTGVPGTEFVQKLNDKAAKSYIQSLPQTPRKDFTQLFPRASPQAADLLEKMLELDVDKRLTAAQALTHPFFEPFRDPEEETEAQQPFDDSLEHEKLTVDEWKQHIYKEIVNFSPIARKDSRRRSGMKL

[19] = biological target: Serine/threonine-protein kinase PAK 4 (Homo sapiens) (UniProt O96013); conditions: Compound concentration 100.0 nM
[20] = biological target: Cyclin-dependent kinase 17 (Homo sapiens) (UniProt Q00537); conditions: Compound concentration 100.0 nM
[21] = biological target: Phosphatidylinositol 3-kinase C2 domain-containing subunit gamma (Homo sapiens) (UniProt O75747); conditions: Compound concentration 100.0 nM
[22] = biological target: Phosphatidylinositol 5-phosphate 4-kinase type-2 gamma (Homo sapiens) (UniProt Q8TBX8); conditions: Compound concentration 100.0 nM
[23] = biological target: Membrane-associated tyrosine- and threonine-specific cdc2-inhibitory kinase (Homo sapiens) (UniProt Q99640); conditions: Compound concentration 100.0 nM
[24] = system: Proto-oncogene tyrosine-protein kinase receptor Ret (Homo sapiens), P07949 [V804M]; conditions: Compound concentration 100.0 nM
[25] = biological target: Serine/threonine-protein kinase RIO1 (Homo sapiens) (UniProt Q9BRS2); conditions: Compound concentration 100.0 nM
[26] = biological target: Ribosomal protein S6 kinase alpha-4 (Homo sapiens) (UniProt O75676); conditions: Compound concentration 100.0 nM
[27] = biological target: Ribosomal protein S6 kinase alpha-1 (Homo sapiens) (UniProt Q15418); conditions: Compound concentration 100.0 nM
[28] = biological target: Ribosomal protein S6 kinase alpha-1 (Homo sapiens) (UniProt Q15418); conditions: Compound concentration 100.0 nM; remark: listed apart in the source
[29] = biological target: Proto-oncogene tyrosine-protein kinase Src (Homo sapiens) (UniProt P12931); conditions: Compound concentration 100.0 nM
[30] = biological target: Serine/threonine-protein kinase 36 (Homo sapiens) (UniProt Q9NRP7); conditions: Compound concentration 100.0 nM
[31] = biological target: Serine/threonine-protein kinase TAO3 (Homo sapiens) (UniProt Q9H2K8); conditions: Compound concentration 100.0 nM
[32] = biological target: Non-receptor tyrosine-protein kinase TNK1 (Homo sapiens) (UniProt Q13470); conditions: Compound concentration 100.0 nM
[33] = biological target: BDNF/NT-3 growth factors receptor (Homo sapiens) (UniProt Q16620); conditions: Compound concentration 100.0 nM
[34] = biological target: Testis-specific serine/threonine-protein kinase 1 (Homo sapiens) (UniProt Q9BXA7); conditions: Compound concentration 100.0 nM
[35] = biological target: Serine/threonine-protein kinase WNK3 (Homo sapiens) (UniProt Q9BYP7); conditions: Compound concentration 100.0 nM
[36] = biological target: Mitogen-activated protein kinase kinase kinase 19 (Homo sapiens) (UniProt Q56UN5); conditions: Compound concentration 100.0 nM
[37] = biological target: Kappa-type opioid receptor (Homo sapiens, UniProt P41145); conditions: Compound concentration 10.0 uM
[38] = biological target: Alpha-1B adrenergic receptor (Homo sapiens) (UniProt P35368); conditions: Compound concentration 10.0 uM
[39] = biological target: Muscarinic acetylcholine receptor M3 (Homo sapiens) (UniProt P20309); conditions: Compound concentration 10.0 uM
[40] = biological target: Muscarinic acetylcholine receptor M5 (Homo sapiens) (UniProt P08912); conditions: Compound concentration 10.0 uM
Muscarinic acetylcholine receptor M5 (Homo sapiens), sequence (P08912 whole entry): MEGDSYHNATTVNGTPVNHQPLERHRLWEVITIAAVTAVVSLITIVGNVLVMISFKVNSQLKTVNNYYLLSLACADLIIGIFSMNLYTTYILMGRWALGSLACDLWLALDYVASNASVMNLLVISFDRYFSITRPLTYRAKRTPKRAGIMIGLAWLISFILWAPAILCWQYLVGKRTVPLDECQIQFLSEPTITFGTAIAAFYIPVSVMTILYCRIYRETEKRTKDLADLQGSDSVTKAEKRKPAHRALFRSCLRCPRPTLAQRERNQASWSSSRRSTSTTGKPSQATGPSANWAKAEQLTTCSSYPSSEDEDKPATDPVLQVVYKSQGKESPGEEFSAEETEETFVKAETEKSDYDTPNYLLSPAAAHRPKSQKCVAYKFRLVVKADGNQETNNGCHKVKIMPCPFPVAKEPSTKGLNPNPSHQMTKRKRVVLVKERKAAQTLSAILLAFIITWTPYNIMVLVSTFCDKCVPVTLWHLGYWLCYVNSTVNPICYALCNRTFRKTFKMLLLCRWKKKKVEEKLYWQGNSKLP

Ribosomal protein S6 kinase alpha-1 (Homo sapiens), sequence (Q15418 whole entry): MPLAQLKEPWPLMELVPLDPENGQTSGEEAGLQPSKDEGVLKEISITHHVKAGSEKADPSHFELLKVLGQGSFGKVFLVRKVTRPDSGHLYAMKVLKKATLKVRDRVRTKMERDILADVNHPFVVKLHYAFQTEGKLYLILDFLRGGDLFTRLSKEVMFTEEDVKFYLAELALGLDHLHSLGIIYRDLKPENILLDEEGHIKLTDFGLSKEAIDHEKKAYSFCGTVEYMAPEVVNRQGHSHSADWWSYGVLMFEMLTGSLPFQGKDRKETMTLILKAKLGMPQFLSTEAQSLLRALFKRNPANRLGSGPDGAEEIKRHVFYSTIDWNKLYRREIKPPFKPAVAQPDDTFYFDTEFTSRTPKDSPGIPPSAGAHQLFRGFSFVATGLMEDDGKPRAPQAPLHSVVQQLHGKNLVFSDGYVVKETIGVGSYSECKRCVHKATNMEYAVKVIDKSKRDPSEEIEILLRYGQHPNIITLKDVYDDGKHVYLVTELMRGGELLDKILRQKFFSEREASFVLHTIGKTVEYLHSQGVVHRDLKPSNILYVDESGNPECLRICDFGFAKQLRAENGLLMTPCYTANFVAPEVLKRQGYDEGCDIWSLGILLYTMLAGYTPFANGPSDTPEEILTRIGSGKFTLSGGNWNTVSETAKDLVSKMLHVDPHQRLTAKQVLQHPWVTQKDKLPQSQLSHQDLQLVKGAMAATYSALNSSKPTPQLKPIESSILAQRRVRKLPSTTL
Phosphatidylinositol 3-kinase C2 domain-containing subunit gamma (Homo sapiens), sequence (O75747 whole entry, the tested form may be a part): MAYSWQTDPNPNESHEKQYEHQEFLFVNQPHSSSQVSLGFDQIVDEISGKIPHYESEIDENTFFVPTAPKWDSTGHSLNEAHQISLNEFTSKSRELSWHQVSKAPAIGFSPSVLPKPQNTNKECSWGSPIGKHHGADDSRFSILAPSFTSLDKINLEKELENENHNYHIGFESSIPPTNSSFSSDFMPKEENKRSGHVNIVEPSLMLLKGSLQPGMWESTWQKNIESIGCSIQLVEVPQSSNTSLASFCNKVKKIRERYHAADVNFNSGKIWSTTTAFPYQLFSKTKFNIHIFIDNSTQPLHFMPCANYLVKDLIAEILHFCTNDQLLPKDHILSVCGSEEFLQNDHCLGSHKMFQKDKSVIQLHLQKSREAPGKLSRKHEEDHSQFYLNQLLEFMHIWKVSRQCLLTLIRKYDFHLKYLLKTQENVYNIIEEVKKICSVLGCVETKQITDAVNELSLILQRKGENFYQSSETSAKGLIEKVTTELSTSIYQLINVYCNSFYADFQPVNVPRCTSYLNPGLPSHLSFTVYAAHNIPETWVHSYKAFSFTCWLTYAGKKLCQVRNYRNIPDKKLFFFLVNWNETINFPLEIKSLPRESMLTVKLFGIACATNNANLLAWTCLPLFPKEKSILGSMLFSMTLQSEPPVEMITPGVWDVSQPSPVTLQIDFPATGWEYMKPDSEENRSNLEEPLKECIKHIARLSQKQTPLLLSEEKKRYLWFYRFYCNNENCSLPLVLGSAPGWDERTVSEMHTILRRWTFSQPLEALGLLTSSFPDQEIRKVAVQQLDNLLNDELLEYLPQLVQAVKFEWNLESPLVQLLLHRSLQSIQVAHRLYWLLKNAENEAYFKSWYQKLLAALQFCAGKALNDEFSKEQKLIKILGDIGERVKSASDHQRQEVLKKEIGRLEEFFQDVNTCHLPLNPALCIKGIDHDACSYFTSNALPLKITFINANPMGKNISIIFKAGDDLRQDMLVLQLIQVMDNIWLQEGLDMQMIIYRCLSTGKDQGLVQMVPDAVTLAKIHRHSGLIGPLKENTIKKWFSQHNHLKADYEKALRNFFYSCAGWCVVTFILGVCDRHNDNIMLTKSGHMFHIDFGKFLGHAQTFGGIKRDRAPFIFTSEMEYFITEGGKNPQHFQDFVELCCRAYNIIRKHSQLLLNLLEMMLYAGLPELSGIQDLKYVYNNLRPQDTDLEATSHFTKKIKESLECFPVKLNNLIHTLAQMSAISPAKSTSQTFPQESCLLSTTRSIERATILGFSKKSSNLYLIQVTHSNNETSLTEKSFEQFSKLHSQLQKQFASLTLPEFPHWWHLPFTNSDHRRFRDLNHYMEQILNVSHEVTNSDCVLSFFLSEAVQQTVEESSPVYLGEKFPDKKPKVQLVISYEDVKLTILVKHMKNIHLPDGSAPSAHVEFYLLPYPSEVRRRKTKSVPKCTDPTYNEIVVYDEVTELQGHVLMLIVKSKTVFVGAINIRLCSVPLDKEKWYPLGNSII
Membrane-associated tyrosine- and threonine-specific cdc2-inhibitory kinase (Homo sapiens), sequence (Q99640 whole entry): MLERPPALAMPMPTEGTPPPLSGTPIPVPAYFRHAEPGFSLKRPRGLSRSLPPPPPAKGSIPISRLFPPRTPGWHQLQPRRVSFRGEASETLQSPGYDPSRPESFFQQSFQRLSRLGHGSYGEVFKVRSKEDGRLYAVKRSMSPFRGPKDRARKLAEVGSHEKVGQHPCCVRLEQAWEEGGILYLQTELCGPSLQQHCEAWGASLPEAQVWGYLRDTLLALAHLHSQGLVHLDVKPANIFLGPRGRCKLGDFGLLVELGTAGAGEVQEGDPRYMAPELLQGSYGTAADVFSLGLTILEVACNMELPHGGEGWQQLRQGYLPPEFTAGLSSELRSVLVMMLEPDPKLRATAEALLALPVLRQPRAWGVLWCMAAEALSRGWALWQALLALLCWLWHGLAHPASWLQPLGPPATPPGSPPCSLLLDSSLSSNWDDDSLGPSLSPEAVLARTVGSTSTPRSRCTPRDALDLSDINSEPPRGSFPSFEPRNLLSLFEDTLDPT
RAC-alpha serine/threonine-protein kinase (Homo sapiens), sequence (P31749 whole entry): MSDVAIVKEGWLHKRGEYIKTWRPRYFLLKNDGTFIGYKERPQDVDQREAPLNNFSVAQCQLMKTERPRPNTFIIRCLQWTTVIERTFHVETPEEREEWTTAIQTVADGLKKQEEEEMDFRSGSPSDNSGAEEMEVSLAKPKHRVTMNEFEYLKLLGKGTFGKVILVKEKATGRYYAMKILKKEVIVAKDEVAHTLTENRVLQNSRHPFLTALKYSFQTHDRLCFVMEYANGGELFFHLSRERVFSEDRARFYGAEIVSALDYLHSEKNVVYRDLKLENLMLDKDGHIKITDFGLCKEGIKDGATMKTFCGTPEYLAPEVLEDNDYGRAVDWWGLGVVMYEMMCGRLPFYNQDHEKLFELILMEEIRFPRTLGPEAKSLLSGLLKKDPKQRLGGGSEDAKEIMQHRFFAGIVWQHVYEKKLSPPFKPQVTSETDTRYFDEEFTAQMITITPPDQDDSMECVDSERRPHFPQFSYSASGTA
Proto-oncogene tyrosine-protein kinase receptor Ret (Homo sapiens), P07949 [V804M], sequence (P07949 whole entry V804M): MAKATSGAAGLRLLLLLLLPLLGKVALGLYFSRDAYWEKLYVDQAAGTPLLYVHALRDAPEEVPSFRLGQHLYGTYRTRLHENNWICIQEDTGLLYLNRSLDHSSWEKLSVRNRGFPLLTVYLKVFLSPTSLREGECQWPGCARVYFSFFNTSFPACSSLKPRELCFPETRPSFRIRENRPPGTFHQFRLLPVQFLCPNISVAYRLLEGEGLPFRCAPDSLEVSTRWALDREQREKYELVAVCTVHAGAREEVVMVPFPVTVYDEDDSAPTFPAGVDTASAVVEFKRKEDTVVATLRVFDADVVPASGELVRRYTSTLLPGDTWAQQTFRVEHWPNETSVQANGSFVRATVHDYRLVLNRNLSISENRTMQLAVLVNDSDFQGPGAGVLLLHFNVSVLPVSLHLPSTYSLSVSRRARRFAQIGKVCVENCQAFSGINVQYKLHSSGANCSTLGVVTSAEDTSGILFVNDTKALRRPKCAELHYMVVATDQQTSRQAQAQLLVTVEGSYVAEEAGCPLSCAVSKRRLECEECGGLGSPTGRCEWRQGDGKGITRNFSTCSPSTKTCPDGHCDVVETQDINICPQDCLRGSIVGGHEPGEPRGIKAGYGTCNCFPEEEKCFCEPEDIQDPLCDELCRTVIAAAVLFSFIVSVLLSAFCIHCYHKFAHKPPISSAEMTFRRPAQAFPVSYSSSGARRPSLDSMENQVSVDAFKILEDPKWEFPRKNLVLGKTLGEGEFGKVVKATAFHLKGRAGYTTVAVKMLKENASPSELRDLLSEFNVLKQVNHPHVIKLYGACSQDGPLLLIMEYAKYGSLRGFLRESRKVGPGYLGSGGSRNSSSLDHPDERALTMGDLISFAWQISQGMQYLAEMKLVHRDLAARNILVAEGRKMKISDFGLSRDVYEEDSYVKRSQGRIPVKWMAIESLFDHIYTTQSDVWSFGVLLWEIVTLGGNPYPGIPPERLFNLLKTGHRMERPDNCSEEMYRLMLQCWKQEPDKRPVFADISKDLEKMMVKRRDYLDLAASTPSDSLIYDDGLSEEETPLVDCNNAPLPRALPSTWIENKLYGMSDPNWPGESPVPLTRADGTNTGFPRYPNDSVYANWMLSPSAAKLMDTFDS

Row | Structure (SMILES) | residual activity [1] [%] | residual activity [2] [%] | residual activity [3] [%] | residual activity [4] [%] | residual activity [5] [%] | residual activity [6] [%] | residual activity [7] [%] | residual activity [8] [%] | residual activity [9] [%] | residual activity [10] [%] | residual activity [11] [%] | residual activity [12] [%] | residual activity [13] [%] | residual activity [14] [%] | residual activity [15] [%] | residual activity [16] [%] | residual activity [17] [%] | residual activity [18] [%] | residual activity [19] [%] | residual activity [20] [%] | other results
1 | Cc1c[nH]c2nccc(Oc3c(F)cc(Nc4cc(Cl)nc(N)n4)cc3F)c12 [BAY-549] | 89 | 100 | 90 | 91 | 88 | 98 | 82 | 95 | 90 | 94 | 87 | 94 | 100 | 83 | 100 | 98 | 91 | 89 | 100 | 81 | residual activity [21]: 100%; residual activity [22]: 100%; residual activity [23]: 98%; residual activity [24]: 100%; residual activity [25]: 100%; residual activity [26]: 100%; residual activity [27]: 91%; residual activity [28]: 100%; residual activity [29]: 100%; residual activity [30]: 85%; residual activity [31]: 100%; residual activity [32]: 100%; residual activity [33]: 94%; residual activity [34]: 95%; residual activity [35]: 90%; residual activity [36]: 74%; inhibition [37]: 64.6%; inhibition [38]: 17%; inhibition [39]: -0.34%; inhibition [40]: -3.6%
2 | Cn1cc(Cl)c2c(Oc3c(F)cc(Nc4cc(Cl)nc(N)n4)cc3F)ccnc21 [BAY-4900] | 89 | 75 | 95 | 100 | 97 | 100 | 96 | 99 | 96 | 90 | 90 | 86 | 90 | 90 | 92 | 99 | 57 | 95 | 100 | 100 | residual activity [21]: 100%; residual activity [22]: 96%; residual activity [23]: 100%; residual activity [24]: 95%; residual activity [25]: 100%; residual activity [26]: 87%; residual activity [27]: 86%; residual activity [28]: 100%; residual activity [29]: 92%; residual activity [30]: 93%; residual activity [31]: 100%; residual activity [32]: 100%; residual activity [33]: 96%; residual activity [34]: 100%; residual activity [35]: 95%; residual activity [36]: 75%; inhibition [37]: 54.4%; inhibition [38]: 18.3%; inhibition [39]: -4.88%; inhibition [40]: 3.3%
